For orientation: IC50 means the concentration needed to halve the response being measured.

SMILES strings stand for the structures.

The results in this text go back to patent publication US9187472B2 (AbbVie Inc., priority 2012, dated 2015).

The subject of one experiment is PC3 cells. Description: NAMPT Cell Proliferation Assay. It counts as cell-based. Conditions: Homo sapiens, PC-3, 120 h, 5 days incubation, cell viability by Cell Titer Glo. The essentials:
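PC3 cells were plated at 500 cells/well in RPMI with 10% heat-inactivated FBS, left to attach overnight, then given compounds in 10-fold dilutions from 10 μM to 1×10^−5 μM. After 5 days at 37° C and 5% CO2, viability was read by luminescence and IC50s came from sigmoidal fits of percent inhibition.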
(Cellular ATP, detected with luciferase, serves as a proxy for viable cell number.)

In the next experiment the target is NAMPT (Homo sapiens, UniProt P43490). Description: TR-FRET Binding Assay of NAMPT with PRPP. Conditions: with 200 μM PRPP and 2.5 mM ATP; 2 nM NAMPT, 2 nM probe, 16 hours equilibration. The essentials: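 Read-out is TR-FRET after a 16 h equilibration allowing possible compound modification by the enzyme. Final mix: 2 nM NAMPT, 2 nM probe, 1 nM Tb-anti-His antibody, 200 μM PRPP, 2.5 mM ATP, 2% DMSO.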
NAMPT, sequence (P43490 whole entry): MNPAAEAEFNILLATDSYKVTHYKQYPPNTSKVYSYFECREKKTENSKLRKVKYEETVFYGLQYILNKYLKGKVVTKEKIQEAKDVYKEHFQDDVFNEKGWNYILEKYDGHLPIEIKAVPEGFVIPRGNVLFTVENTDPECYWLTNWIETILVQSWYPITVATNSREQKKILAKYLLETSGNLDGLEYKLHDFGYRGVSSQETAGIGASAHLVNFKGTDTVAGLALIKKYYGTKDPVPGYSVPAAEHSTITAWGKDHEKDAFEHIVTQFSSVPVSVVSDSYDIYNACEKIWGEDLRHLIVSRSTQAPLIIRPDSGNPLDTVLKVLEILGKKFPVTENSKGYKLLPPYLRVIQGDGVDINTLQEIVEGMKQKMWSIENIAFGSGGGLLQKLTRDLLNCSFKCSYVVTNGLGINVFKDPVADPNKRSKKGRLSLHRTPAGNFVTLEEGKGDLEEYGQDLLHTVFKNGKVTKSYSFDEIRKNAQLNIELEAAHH
On the technique in general: In TR-FRET formats the signal depends on donor and acceptor labels being close together.

In experiment [1] the target is NAMPT (human, recombinant, C-terminally His-tagged) (Homo sapiens, UniProt P43490). Description: Time-Resolved Fluorescence Resonance Energy Transfer (TR-FRET) Binding Assay of NAMPT. Particulars: without substrates; 6.8 nM NAMPT, 200 nM probe, 3 hours equilibration. The method in brief:
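Competitive binding against an Oregon Green 488 tracer (200 nM), 6.8 nM His-tagged enzyme, 1 nM Tb antibody, 2% DMSO, 3 h at RT. IC50 derived from TR-FRET ratios.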

NAMPT (human, recombinant, C-terminally His-tagged), sequence (P43490 whole entry): as above

For `CC(C)OCC(=O)N1CCC(c2ccc(NC(=O)NCc3ccn4ccnc4c3)cc2)C1` (stereo not drawn) [Example 384, 1-(imidazo[1,2-a]pyridin-7-ylmethyl)-3-(4-{1-[(propan-2-yloxy)acetyl]pyrrolidin-3-yl}phenyl)urea], the IC50 amounted to 0.0517 µM with PC3 cells, 0.000375 µM on NAMPT and 0.406 µM in experiment [1].
For the compound `CC(C)(O)C(=O)N1CCC(c2ccc(NC(=O)NCc3ccn4ccnc4c3)cc2)C1` (stereo not drawn) [Example 385, 1-{4-[1-(2-hydroxy-2-methylpropanoyl)pyrrolidin-3-yl]phenyl}-3-(imidazo[1,2-a]pyridin-7-ylmethyl)urea], the half-inhibitory concentration (IC50) with PC3 cells worked out at 0.11 µM; at NAMPT, 0.000539 µM; in experiment [1], 0.491 µM.
As to `O=C(NCc1ccn2ccnc2c1)Nc1ccc(C2CCN(C(=O)[C@H]3CCCO3)C2)cc1` (stereo partly drawn) [Example 386, 1-(imidazo[1,2-a]pyridin-7-ylmethyl)-3-(4-{1-[(2R)-tetrahydrofuran-2-ylcarbonyl]pyrrolidin-3-yl}phenyl)urea], the half-inhibitory concentration (IC50) in the experiment with PC3 cells is 0.0424 µM; at NAMPT, 0.000254 µM; in experiment [1], 0.283 µM.
Take `O=C(NCc1ccn2ccnc2c1)Nc1ccc(C2CCN(C(=O)[C@@H]3CCCO3)C2)cc1` (stereo partly drawn) [Example 387, 1-(imidazo[1,2-a]pyridin-7-ylmethyl)-3-(4-{1-[(2S)-tetrahydrofuran-2-ylcarbonyl]pyrrolidin-3-yl}phenyl)urea]: the concentration for half-maximal inhibition (IC50) with PC3 cells is 0.0581 µM; at NAMPT, 0.000467 µM; in experiment [1] it was 0.419 µM.
For the compound `O=C(NCc1ccn2ccnc2c1)Nc1ccc(C2CCN(C(=O)[C@H]3CCOC3)C2)cc1` (stereo partly drawn) [Example 388, 1-(imidazo[1,2-a]pyridin-7-ylmethyl)-3-(4-{1-[(3S)-tetrahydrofuran-3-ylcarbonyl]pyrrolidin-3-yl}phenyl)urea], the values for the half-inhibitory concentration (IC50) (in the experiment on PC3 cells; on NAMPT; in experiment [1]) were 0.122 µM, 0.000506 µM and 0.388 µM, respectively.
Regarding `O=C(NCc1ccn2ccnc2c1)Nc1ccc(C2CCN(C(=O)C3CCOCC3)C2)cc1` (stereo not drawn) [Example 389, 1-(imidazo[1,2-a]pyridin-7-ylmethyl)-3-{4-[1-(tetrahydro-2H-pyran-4-ylcarbonyl)pyrrolidin-3-yl]phenyl}urea], the half-inhibitory concentration (IC50) in the experiment on PC3 cells was found to be 0.0783 µM; on NAMPT it was 0.000617 µM; in experiment [1], 0.584 µM.
The matching figures for `O=C(NCc1ccn2ccnc2c1)Nc1ccc(C2CCN(C(=O)C3COCCO3)C2)cc1` (stereo not drawn) [Example 390]: 0.0803 µM, 0.000445 µM and 0.133 µM.
Regarding `O=C(NCc1ccn2ccnc2c1)Nc1ccc(C2CCN(C(=O)CC3CCOCC3)C2)cc1` (stereo not drawn) [Example 391, 1-(imidazo[1,2-a]pyridin-7-ylmethyl)-3-{4-[1-(tetrahydro-2H-pyran-4-ylacetyl)pyrrolidin-3-yl]phenyl}urea], the figures for the IC50 (in the experiment with PC3 cells; at NAMPT; in experiment [1]) were 0.0784 µM, 0.000227 µM and 0.171 µM, respectively.
For `O=C(NCc1ccn2ccnc2c1)Nc1ccc(C2CCN(C(=O)CN3CCOCC3)C2)cc1` (stereo not drawn) [Example 392, 1-(imidazo[1,2-a]pyridin-7-ylmethyl)-3-{4-[1-(morpholin-4-ylacetyl)pyrrolidin-3-yl]phenyl}urea] the same measures were 0.666 µM, 0.000465 µM and 0.814 µM.
Take `CC(C)CCNC(=O)c1ccc(C(=O)NCc2ccn3ccnc3c2)cc1` [Example 393, N-(imidazo[1,2-a]pyridin-7-ylmethyl)-N′-(3-methylbutyl)benzene-1,4-dicarboxamide]: the half-inhibitory concentration (IC50) is > 10 µM in the experiment on PC3 cells, 0.00437 µM at NAMPT and > 10 µM in experiment [1].
In the case of `O=C(NCc1ccn2ccnc2c1)c1ccc(C(=O)NC[C@@H]2CCOC2)cc1` [Example 394, N-(imidazo[1,2-a]pyridin-7-ylmethyl)-N′-[(3S)-tetrahydrofuran-3-ylmethyl]benzene-1,4-dicarboxamide], the IC50 in the experiment with PC3 cells was > 10 µM; on NAMPT it was 0.00308 µM; in experiment [1] it was > 10 µM.
On to `O=C(NCc1ccn2ccnc2c1)c1ccc(-c2cnn(C[C@H]3CCCO3)c2)s1` [Example 395, N-(imidazo[1,2-a]pyridin-7-ylmethyl)-5-{1-[(2R)-tetrahydrofuran-2-ylmethyl]-1H-pyrazol-4-yl}thiophene-2-carboxamide], for which the 50% inhibitory concentration (IC50) in the experiment on PC3 cells is 0.00634 µM; at NAMPT, 0.000193 µM; in experiment [1], 0.0125 µM.
For `O=C(Nc1ccc(C(=O)NCC2CCCCO2)cc1)Nc1ccc2ncc(Cl)n2c1` (stereo not drawn) [Example 396, 4-{[(3-chloroimidazo[1,2-a]pyridin-6-yl)carbamoyl]amino}-N-(tetrahydro-2H-pyran-2-ylmethyl)benzamide] the same measures were 0.0324 µM, 0.00036 µM and 0.0226 µM.
Turning to `O=C(NCc1ccn2ccnc2c1)c1ccc(-c2cnn(C[C@@H]3CCCO3)c2)s1` [Example 397, N-(imidazo[1,2-a]pyridin-7-ylmethyl)-5-{1-[(2S)-tetrahydrofuran-2-ylmethyl]-1H-pyrazol-4-yl}thiophene-2-carboxamide], the results for the IC50 (in the experiment with PC3 cells; at NAMPT; in experiment [1]) were 0.00712 µM, 0.000169 µM and 0.0177 µM, respectively.
With `O=C(CC1CCOC1)Nc1ccc(C(=O)NCc2ccc3ncc(Cl)n3c2)cc1` (stereo not drawn) [Example 398, N-[(3-chloroimidazo[1,2-a]pyridin-6-yl)methyl]-4-[(tetrahydrofuran-3-ylacetyl)amino]benzamide], the values for the 50% inhibitory concentration (IC50) (in the experiment on PC3 cells; on NAMPT; in experiment [1]) were 0.0736 µM, 0.000792 µM and 0.21 µM, respectively.
With `O=C(NCc1ccn2ccnc2c1)c1ccc(C2(O)CCOCC2)s1` [Example 399, 5-(4-hydroxytetrahydro-2H-pyran-4-yl)-N-(imidazo[1,2-a]pyridin-7-ylmethyl)thiophene-2-carboxamide], the half-inhibitory concentration (IC50) was determined as 7.68 µM in the experiment on PC3 cells, 0.00154 µM on NAMPT and 9.5 µM in experiment [1].
As for `CC(C)C(=O)N1CC(O)(c2ccc(C(=O)NCc3ccn4ccnc4c3)s2)C1` [Example 400, 5-[3-hydroxy-1-(2-methylpropanoyl)azetidin-3-yl]-N-(imidazo[1,2-a]pyridin-7-ylmethyl)thiophene-2-carboxamide], the half-inhibitory concentration (IC50) in the experiment with PC3 cells worked out at 0.712 µM; at NAMPT it was 0.000298 µM; in experiment [1] it was 0.0812 µM.
For `O=C(NCc1ccn2ccnc2c1)c1ccc(C2(O)CN(C(=O)c3ccccc3)C2)s1` [Example 401, 5-(1-benzoyl-3-hydroxyazetidin-3-yl)-N-(imidazo[1,2-a]pyridin-7-ylmethyl)thiophene-2-carboxamide], the IC50 with PC3 cells turned out to be 0.0559 µM; on NAMPT it was 0.000292 µM; in experiment [1], 0.0126 µM.
With `CC(C)(C)OC(=O)N1CC(c2ccc(C(=O)NCc3ccn4ccnc4c3)cc2)C1` [Example 402, tert-butyl 3-{4-[(imidazo[1,2-a]pyridin-7-ylmethyl)carbamoyl]phenyl}azetidine-1-carboxylate], the figures for the IC50 (with PC3 cells; on NAMPT; in experiment [1]) were 0.00671 µM, 0.000327 µM and 0.0548 µM, respectively.
Turning to `CC(C)(C)OC(=O)N1CCC(O)(c2ccc(C(=O)NCc3ccn4ccnc4c3)s2)CC1` [Example 403, tert-butyl 4-hydroxy-4-{5-[(imidazo[1,2-a]pyridin-7-ylmethyl)carbamoyl]thiophen-2-yl}piperidine-1-carboxylate], the IC50 in the experiment with PC3 cells was found to be 0.0545 µM; at NAMPT, 0.000847 µM; in experiment [1], 1.55 µM.
`O=C(NCc1ccn2ccnc2c1)Nc1ncc(C(=O)N2CCCCC2)s1` [Example 404, 1-(imidazo[1,2-a]pyridin-7-ylmethyl)-3-[5-(piperidin-1-ylcarbonyl)-1,3-thiazol-2-yl]urea]: the IC50 in the experiment with PC3 cells was 9.41 µM; on NAMPT it was 0.00088 µM; in experiment [1], 2.55 µM.
Turning to `CC[C@H](C)C(=O)N1CC(O)(c2ccc(C(=O)NCc3ccn4ccnc4c3)s2)C1` [Example 405, 5-{3-hydroxy-1-[(2S)-2-methylbutanoyl]azetidin-3-yl}-N-(imidazo[1,2-a]pyridin-7-ylmethyl)thiophene-2-carboxamide], the half-maximal inhibitory concentration (IC50) with PC3 cells was 0.0221 µM; at NAMPT it was 0.000214 µM; in experiment [1] it was 0.0784 µM.
The matching figures for `O=C(NCc1ccn2ccnc2c1)c1ccc(C2(O)CN(C(=O)CC3CCOCC3)C2)s1` [Example 406, 5-[3-hydroxy-1-(tetrahydro-2H-pyran-4-ylacetyl)azetidin-3-yl]-N-(imidazo[1,2-a]pyridin-7-ylmethyl)thiophene-2-carboxamide]: 0.347 µM, 0.000505 µM and 1.14 µM.
For `CC(C)CCNC(=O)c1cnc(NC(=O)NCc2ccn3ccnc3c2)s1` [Example 407, 2-{[(imidazo[1,2-a]pyridin-7-ylmethyl)carbamoyl]amino}-N-(3-methylbutyl)-1,3-thiazole-5-carboxamide] the same measures were 1.31 µM, 0.000659 µM and 0.22 µM.
Regarding `CC[C@H](C)C(=O)NC1(c2ccc(C(=O)NCc3ccn4ccnc4c3)s2)COC1` [Example 408, N-(imidazo[1,2-a]pyridin-7-ylmethyl)-5-(3-{[(2S)-2-methylbutanoyl]amino}oxetan-3-yl)thiophene-2-carboxamide], the concentration for half-maximal inhibition (IC50) in the experiment with PC3 cells stood at 0.0192 µM; at NAMPT it was 0.000725 µM; in experiment [1], 0.276 µM.
